Data set [1] has as its system P-gp and Bcrp1 at the mouse BBB. The settings on record: zosuquidar 25 mg/kg or Ko143 10 mg/kg i.v. 30 min prior to pazopanib 5 mg/kg i.v.; 60 min post dose.
A further data set deals with P-gp at BBB. The settings on record: mouse, in vivo; cited from earlier work.
Data set [2] is described as follows: Brain accumulation and plasma pharmacokinetics of pazopanib in FVB mice. Particulars: for half-life: 5 mg/kg.
For data set [3], the target named is T1, Bcrp1, MDCK-Bcrp1 cell monolayers (Mus musculus, UniProt Q7TMS5).
T1 sequence (Q7TMS5 1-657): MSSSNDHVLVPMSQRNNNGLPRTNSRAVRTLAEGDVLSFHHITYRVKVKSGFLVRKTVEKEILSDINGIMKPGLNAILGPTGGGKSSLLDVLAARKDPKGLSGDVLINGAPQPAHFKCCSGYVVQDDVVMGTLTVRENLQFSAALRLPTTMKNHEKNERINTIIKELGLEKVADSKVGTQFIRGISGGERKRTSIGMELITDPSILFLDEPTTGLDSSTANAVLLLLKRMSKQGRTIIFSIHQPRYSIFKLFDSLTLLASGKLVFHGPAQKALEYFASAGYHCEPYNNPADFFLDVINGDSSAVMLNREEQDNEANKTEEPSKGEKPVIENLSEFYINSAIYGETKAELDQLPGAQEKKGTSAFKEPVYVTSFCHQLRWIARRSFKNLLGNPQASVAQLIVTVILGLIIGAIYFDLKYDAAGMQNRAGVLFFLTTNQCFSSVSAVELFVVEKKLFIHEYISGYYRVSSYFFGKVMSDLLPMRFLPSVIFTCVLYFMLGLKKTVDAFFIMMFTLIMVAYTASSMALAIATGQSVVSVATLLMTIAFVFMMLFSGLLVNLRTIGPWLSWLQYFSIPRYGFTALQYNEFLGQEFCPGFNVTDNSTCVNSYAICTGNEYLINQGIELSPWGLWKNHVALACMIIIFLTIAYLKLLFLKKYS
Description: Bi-directional transport across MDCK-Bcrp1 monolayers. The class given is in vitro ADME, murine.

For another data set, the target named is T2, Bcrp1 (Mus musculus, UniProt Q7TMS5).
T2 sequence (Q7TMS5 1-657): T1 sequence (Q7TMS5 1-657)
The data set is described as above. It counts as in vitro ADME, murine. Particulars: mouse, Efflux ratio, MDCK-Bcrp1, 5 μM pazopanib, no inhibitor.

The next data set addresses T3, Bcrp1 (murine) (Mus musculus, UniProt Q7TMS5).
T3 sequence (Q7TMS5 1-657): T1 sequence (Q7TMS5 1-657)
The data set is described as above. The class given is in vitro ADME. The settings on record: dog.

The target of data set [4] is P-gp (MDR1), MDCKII-MDR1 transfected cells (Homo sapiens, UniProt P08183). The data set can be described thus: Cellular accumulation of pazopanib in MDCKII-MDR1 vs WT cells. Particulars: 0.1 μM pazopanib, 60 min, no inhibitor. The class given is in vitro ADME.
P-gp (MDR1), MDCKII-MDR1 transfected cells, sequence (P08183 whole entry): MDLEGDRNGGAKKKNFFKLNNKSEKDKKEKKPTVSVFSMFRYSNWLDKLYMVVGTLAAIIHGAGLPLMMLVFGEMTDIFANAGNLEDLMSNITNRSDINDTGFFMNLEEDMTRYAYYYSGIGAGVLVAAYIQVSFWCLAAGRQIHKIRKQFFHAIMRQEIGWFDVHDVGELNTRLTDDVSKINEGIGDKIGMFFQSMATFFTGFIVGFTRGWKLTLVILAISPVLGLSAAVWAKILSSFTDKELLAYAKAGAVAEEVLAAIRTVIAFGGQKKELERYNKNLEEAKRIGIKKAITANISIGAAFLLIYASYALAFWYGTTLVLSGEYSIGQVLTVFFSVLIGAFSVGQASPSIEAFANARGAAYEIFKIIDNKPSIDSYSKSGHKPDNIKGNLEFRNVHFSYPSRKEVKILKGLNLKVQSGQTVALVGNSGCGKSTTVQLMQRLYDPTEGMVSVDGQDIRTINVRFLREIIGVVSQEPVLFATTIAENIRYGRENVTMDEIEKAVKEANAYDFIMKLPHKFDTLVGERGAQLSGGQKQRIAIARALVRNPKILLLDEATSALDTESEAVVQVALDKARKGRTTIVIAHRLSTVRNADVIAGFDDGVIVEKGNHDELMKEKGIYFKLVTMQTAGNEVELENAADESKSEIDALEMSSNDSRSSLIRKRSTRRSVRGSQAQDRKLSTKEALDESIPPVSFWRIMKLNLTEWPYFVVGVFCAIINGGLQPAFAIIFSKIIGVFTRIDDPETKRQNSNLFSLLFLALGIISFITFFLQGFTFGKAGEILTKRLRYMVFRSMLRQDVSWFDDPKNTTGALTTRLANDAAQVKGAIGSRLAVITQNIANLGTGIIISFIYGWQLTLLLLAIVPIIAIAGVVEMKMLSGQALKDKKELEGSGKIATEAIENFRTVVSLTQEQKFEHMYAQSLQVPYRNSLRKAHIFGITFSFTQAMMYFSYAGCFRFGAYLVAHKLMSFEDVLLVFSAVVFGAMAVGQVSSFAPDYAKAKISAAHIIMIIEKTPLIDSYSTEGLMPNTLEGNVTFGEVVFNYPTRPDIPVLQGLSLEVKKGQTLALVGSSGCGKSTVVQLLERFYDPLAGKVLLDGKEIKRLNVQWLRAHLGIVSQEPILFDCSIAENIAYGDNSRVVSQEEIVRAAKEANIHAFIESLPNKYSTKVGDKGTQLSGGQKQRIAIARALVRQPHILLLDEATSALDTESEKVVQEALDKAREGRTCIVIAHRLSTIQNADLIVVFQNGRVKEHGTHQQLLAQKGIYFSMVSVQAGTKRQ
Data set [5] can be described thus: Bi-directional transport across MDCK-WT monolayers. The class given is in vitro ADME, canine. The settings on record: dog.
For another data set, the target named is P-gp (MDR1) (Homo sapiens, UniProt P08183). Description: Bi-directional transport across MDCK-MDR1 monolayers. The class given is in vitro ADME. The settings on record: dog.
P-gp (MDR1), sequence (P08183 whole entry): as above
For data set [6], the target named is P-gp (MDR1), MDCK-MDR1 cell monolayers (Homo sapiens, UniProt P08183). The description is as above. It counts as in vitro ADME.
P-gp (MDR1), MDCK-MDR1 cell monolayers, sequence (P08183 whole entry): as above
Data set [7] concerns the target T4, Bcrp1, MDCKII-Bcrp1 transfected cells (Mus musculus, UniProt Q7TMS5).
T4 sequence (Q7TMS5 1-657): T1 sequence (Q7TMS5 1-657)
Description: Cellular accumulation of pazopanib in MDCKII-Bcrp1 vs WT cells. It counts as in vitro ADME, murine. The settings on record: 0.1 μM pazopanib, 60 min, no inhibitor.

The nature of the next data set: in vivo. Particulars: male, mouse, 5 mg/kg.
Where [8] appears, read: brain, pazopanib 5 mg/kg i.v. + elacridar (GF120918) 10 mg/kg.
[9] abbreviates: brain, pazopanib alone, 5 mg/kg i.v. bolus.
Where [10] appears, read: plasma, pazopanib 5 mg/kg i.v. + elacridar (GF120918) 10 mg/kg.
The mark [11] stands for this setting: plasma, pazopanib alone, 5 mg/kg i.v. bolus.
Setting [12] is: in vitro MDCKII cell monolayers.

The term half-life denotes how long it takes for the measured level to halve. In general, clearance refers to the rate of elimination divided by the concentration. For orientation: efflux ratio means the permeability from basolateral to apical divided by that in the opposite direction, in the common usage. In general, Papp A→B refers to the apparent permeability from the apical to the basolateral side of a cell layer. As a reminder, the Papp B→A is the apparent permeability from the basolateral to the apical side of a cell layer. A word on the Kp: it is tissue or fluid exposure divided by exposure in the circulation. One may read the Vd as the apparent volume that relates the amount in the body to the concentration in plasma or blood. The low end stands for confinement near the circulation, the high end for extensive tissue distribution.

For the molecule `O[C@@H](COc1cccc2ncccc12)CN1CCN([C@@H]2c3ccccc3[C@@H]3[C@H](c4ccccc42)C3(F)F)CC1` [zosuquidar], the “Effect on pazopanib brain concentration” value in data set [1] was “did not significantly alter”. In the data set with P-gp at BBB, the “Enhanced brain penetration of paclitaxel upon co-administration” value is on record as ~ 5.6 fold.
For the molecule `Cc1ccc(Nc2nccc(N(C)c3ccc4c(C)n(C)nc4c3)n2)cc1S(N)(=O)=O` [Pazopanib], the “AUC (0 → tlast)” value in [2] (setting [8]) worked out at 0.042 ± 0.003 mg·min/mL; in data set [2] (setting [9]), 0.020 ± 0.001 mg·min/mL; in data set [2] (setting [10]), 1.029 ± 0.071 mg·min/mL; in data set [2] (setting [11]), 1.356 ± 0.043 mg·min/mL. Also, the λz in data set [2] (setting [8]) was determined as 0.25 h⁻¹; in [2] (plasma, pazopanib 5 mg/kg i.v. + elacridar (GF120918) 10 mg/kg i.v. 30 min prior) it was 0.38 h⁻¹. In addition, the half-life in data set [2] (setting [9]) was 1.89 h; in data set [2] (setting [11]), 1.39 h; in the data set “in vivo” (FVB, brain, iv), 1.9 h; in “in vivo” (FVB, plasma, iv) it was 1.4 h. Besides, the Volume of distribution in [2] (setting [10]) is 0.39822 L/kg. The clearance worked out at 2.49 mL/min/kg in data set [2] (setting [10]) and 2.38 mL/min/kg in the data set “in vivo” (FVB wild type, plasma, iv). Moreover, the Efflux ratio in data set [3] (MDCK-Bcrp1, 5 μM pazopanib, no inhibitor) worked out at 47.1; in data set [6] (MDCK-MDR1, 5 μM pazopanib + 1 μM zosuquidar (LY)), 1.07. Further, in data set [3] (setting [12]), the “Substrate classification for Bcrp1” value is recorded as “high affinity substrate”. Besides, the efflux ratio at 240 min, 5 μM amounted to 47 on Bcrp1; 1.35 on Bcrp1 (murine) (with Ko143 200 nM, Efflux ratio, MDCK-Bcrp1, 5 μM pazopanib + 200 nM Ko143); 1.06 in data set [5]; 1.7 at P-gp (MDR1) (MDCK-MDR1, Efflux ratio, MDCK-MDR1, 5 μM pazopanib, no inhibitor). Further, the Papp A→B at 240 min, 5 μM came out at 0.2 ± 0.04 ×10⁻⁶ cm/s at Bcrp1 (murine), 2.92 ± 0.33 ×10⁻⁶ cm/s in [5] and 3.73 ± 0.17 ×10⁻⁶ cm/s at P-gp (MDR1) (MDCK-MDR1). For the same molecule, the Papp B→A at 240 min, 5 μM at Bcrp1 (murine) was found to be 9.71 ± 0.09 ×10⁻⁶ cm/s; in data set [5] it was 3.1 ± 0.22 ×10⁻⁶ cm/s; at P-gp (MDR1) (MDCK-MDR1), 6.3 ± 0.56 ×10⁻⁶ cm/s. In addition, the “Pazopanib accumulation in MDR1 overexpressing cells relative to WT cells” value in data set [4] is reported as 60 % of WT cells. The “Substrate classification for P-gp” value in [6] (setting [12]) is “moderate substrate”. Moreover, the “Pazopanib accumulation in Bcrp1 overexpressing cells relative to WT cells” value in [7] is listed as “approximately 5 % of WT cells”. Besides, the k el in the data set “in vivo” (FVB wild type, brain, iv) is 0.000103 s⁻¹; in “in vivo” (FVB wild type, plasma, iv), 0.000139 s⁻¹. Also, the Kp in the data set “in vivo” (FVB wild type, brain/plasma, iv) came out at 0.015. In the data set “in vivo” (FVB wild type, plasma, iv), this molecule had a Vd of 0.286 L/kg. The same molecule returned a concentration at 15 min in the data set “in vivo” (FVB, brain, intravenous) of 293 ± 52 ng/g. The concentration at 30 min in “in vivo” (FVB, brain, intravenous) amounted to 157 ± 2 ng/g. The molecule further came in with a concentration at 60 min in the data set “in vivo” (FVB, brain, intravenous) of 95 ± 11 ng/g. In “in vivo” (FVB, brain/plasma, intravenous), this molecule had a Kp at 30 min of 0.0113 ± 0.005. In “in vivo” (FVB, brain/plasma, intravenous), this molecule returned a Kp at 60 min of 0.009 ± 0.001.
Take `COc1ccc2c3c([nH]c2c1)[C@H](CC(C)C)N1C(=O)[C@H](CCC(=O)OC(C)(C)C)NC(=O)[C@@H]1C3` [Ko143]: the “Effect on pazopanib brain concentration” value in data set [1] is listed as “did not significantly alter”.

(Values after publication PMC3573846 (International journal of pharmaceutics, 2012).)
